Experimental data as given in patent US12043600B2, “Microbiocidal compounds” (SYNGENTA CROP PROTECTION AG, priority 2018, dated 2024).

Legend:
[1] = tested on: Botryotinia fuckeliana (Botrytis cinerea); assay: Botryotinia fuckeliana (Botrytis cinerea)/Liquid Culture (Gray Mould); type: cell-based; conditions: liquid culture, compared to untreated control
Experimental: Conidia of the fungus from cryogenic storage are directly mixed into nutrient broth (Vogels broth). After placing a (DMSO) solution of test compound into a microtiter plate (96-well format), the nutrient broth containing the fungal spores is added.

[2] = tested on: Glomerella lagenarium (Colletotrichum lagenarium); assay: Glomerella lagenarium (Colletotrichum lagenarium)/Liquid Culture (Anthracnose); type: cell-based; conditions: Colletotrichum orbiculare, liquid culture, compared to untreated control
[3] = tested on: Blumeria graminis f. sp. tritici (Erysiphe graminis f. sp. tritici); assay: Blumeria graminis f. sp. tritici/Wheat/Leaf Disc Preventative (Powdery Mildew on Wheat); type: in vivo; conditions: foliar, wheat leaf disc preventative, compared to untreated control
How it was run: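 Wheat cv. Kanzler leaf segments on agar sprayed with formulated compound, inoculated with powdery mildew 1 day later and held at 20° C, 60% rh (24 h dark, then 12 h light/12 h dark). Percent disease control versus untreated scored 6-8 days after application.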

[4] = tested on: Phaeosphaeria nodorum (Septoria nodorum); assay: Phaeosphaeria nodorum (Septoria nodorum)/Wheat/Leaf Disc Preventative (Glume Blotch); type: in vivo; conditions: Parastagonospora nodorum, foliar, wheat leaf disc preventative, compared to untreated control
How it was run: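 Wheat cv. Kanzler leaf discs on agar were sprayed with formulated compound diluted in water and inoculated with P. nodorum spores 2 days later. Discs kept at 20 °C, 75% rh, 12 h light/dark; percent disease control versus untreated scored 5–7 days after application.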

[5] = tested on: Monographella nivalis (Microdochium nivale); assay: Monographella nivalis (Microdochium nivale)/Liquid Culture (Foot Rot Cereals); type: cell-based; conditions: liquid culture, compared to untreated control
How it was run: (§1)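 Conidia from cryogenic storage were mixed directly into potato dextrose broth, then added to microtiter wells already holding the test compound dissolved in DMSO. Fungal growth in liquid culture was then assessed.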

[6] = tested on: Mycosphaerella arachidis (Cercospora arachidicola); assay: Mycosphaerella arachidis (Cercospora arachidicola)/Liquid Culture (Early Leaf Spot); type: cell-based; conditions: liquid culture, compared to untreated control
How it was run: as §1

[7] = tested on: Phytophthora infestans; assay: whole plant or invertebrate; type: in vivo; conditions: in Solanum lycopersicum, foliar, read-out: control of Phytophthora infestans
[8] = tested on: Plasmopara viticola; assay: whole plant or invertebrate; type: in vivo; conditions: foliar, read-out: control of Plasmopara viticola
[9] = tested on: Magnaporthe grisea (Pyricularia oryzae); assay: whole plant or invertebrate; type: in vivo; conditions: foliar, read-out: control of Magnaporthe grisea
[10] = tested on: Pyrenophora teres; assay: Pyrenophora teres/Barley/Leaf Disc Preventative (Net Blotch); type: in vivo; conditions: foliar, 200 ppm, barley leaf disc preventative, compared to untreated control, read-out: control of Pyrenophora teres
How it was run: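 Formulated compound, diluted in water, sprayed onto barley cv. Hasso leaf segments on agar; spore suspension inoculation followed 2 days after application. Results expressed as percentage disease control.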

[11] = tested on: Thanatephorus cucumeris (Rhizoctonia solani); assay: Thanatephorus cucumeris (Rhizoctonia solani)/Liquid Culture (Foot Rot, Damping-Off); type: cell-based; conditions: liquid culture, compared to untreated control
Experimental: Mycelia fragments of a newly grown liquid culture of the fungus are directly mixed into nutrient broth (PDB potato dextrose broth). After placing a (DMSO) solution of the test compounds into a microtiter plate (96-well format), the nutrient broth containing the fungal material is added.

[12] = tested on: Mycosphaerella graminicola (Septoria tritici); assay: Mycosphaerella graminicola (Septoria tritici)/Liquid Culture (Septoria Blotch); type: cell-based; conditions: Zymoseptoria tritici; 20 ppm; liquid culture; compared to untreated control
How it was run: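 Conidia from cryogenic storage mixed into potato dextrose broth and added to microtiter wells already holding DMSO solutions of test compound. Activity expressed as percentage disease control.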

[13] = Photostability assay (Atlas Suntest); type: physicochemical; conditions: Suntest 750 W/m^2, spotted on microscope slides
Experimental: The testing method to measure the photostability data of each compound in table is D1 is as specifically described below. The objective of the photostability assay was to determine the stability of the individual test compounds in a strictly controlled and reproducible environment allowing a comparison of their photostability.
Method: Compounds were dissolved in methanol (HPLC grade) to give 1 g/L stock solutions. Compound stock solution (2 μl) was spotted onto microscope slides in a 3D printed holder and put into the Atlas Suntest. The spectral output power of the Suntest was set to 750 W/m^2, which is considered typical of the daily maximum (noon) irradiance level on a very bright British Summer day. At specific time points slides were removed from the Suntest and placed in 4D vials. Wash solvent made up of 50:40:10 H2O:MeCN:THF (1 mL) is then added to the vials and whirlimixed. The resulting solution is then subsampled to an HPLC vial to be analysed. A Waters UPLC system with Photodiode Array was used with a Waters reverse phase column (BEH C18, 100×2.1 mm×1.7 μm) and acetonitrile (HPLC grade) acidified water (0.2% formic acid) mobile phase at a flow rate of 0.6 mL/min. Peak detection was at the optimum wavelength and peak areas were used for quantification
Initial and subsequent measurements of peak area attributable to the test compound were used to provide a % parent remaining at 3 hours.

[14] = tested on: Puccinia recondita f. sp. tritici; assay: Puccinia recondita f. sp. tritici/Wheat/Leaf Disc Curative (Brown Rust); type: in vivo; conditions: foliar, wheat leaf disc curative, compared to untreated control
How it was run: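 Curative leaf-disc test on wheat cv. Kanzler segments on agar, spore-inoculated and kept dark at 19° C, 75% rh; formulated compound in water applied 1 day after inoculation. Incubated at 19° C, 75% rh, 12 h light/12 h dark; percent disease control versus untreated scored 6-8 days after application.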

[15] = tested on: Puccinia recondita f. sp. tritici; assay: Puccinia recondita f. sp. tritici/Wheat/Leaf Disc Preventative (Brown Rust); type: in vivo; conditions: foliar, 200 ppm, wheat leaf disc preventative, compared to untreated control, read-out: control of Puccinia recondita f. sp. tritici
[16] = tested on: Sclerotinia sclerotiorum; assay: Sclerotinia sclerotiorum/Liquid Culture (Cottony Rot); type: cell-based; conditions: liquid culture, compared to untreated control
Experimental: Mycelia fragments of a newly grown liquid culture of the fungus are directly mixed into nutrient broth (PDB potato dextrose broth). After placing a (DMSO) solution of test compound into a microtiter plate (96-well format) the nutrient broth containing the fungal material is added.

[17] = tested on: Phakopsora pachyrhizi; assay: Phakopsora pachyrhizi/Soybean/Preventative (Soybean Rust); type: in vivo; conditions: 288 h, Phakopsora pachyrhizi (Soybean rust)

SMILES	inhibition of growth at 20 ppm [1]	inhibition of growth at 20 ppm [2]	pest or weed control at 200 ppm [3]	pest or weed control at 200 ppm [4]	inhibition of growth at 20 ppm [5]	inhibition of growth at 20 ppm [6]	pest or weed control at 200 ppm [7]	pest or weed control at 200 ppm [8]	pest or weed control at 200 ppm [9]	inhibition of growth at 20 ppm [11]	inhibition of growth at 20 ppm [12]	% Parent Remaining @ 3 hrs [13]	melting point	pest or weed control at 200 ppm [14]	pest or weed control at 200 ppm [15]	inhibition of growth at 20 ppm [16]	other results
CCC(C)c1ccn(-c2ccc(C)c(O/C(=C\OC)C(=O)OC)c2)n1 (centres unmarked) [Compound E-44, methyl (Z)-3-methoxy-2-[2-methyl-5-(3-sec-butylpyrazol-1-yl)phenoxy]prop-2-enoate]	≥ 80%	≥ 80%	≥ 80%	≥ 80%	≥ 80%	≥ 80%	≥ 80%	≥ 80%	≥ 80%	≥ 80%	≥ 80%	69%	110 to 113 °C	–	–	–	pest or weed control at 200 ppm [10]: ≥ 80%
CO/C=C(\Oc1cc(-n2ccc(C(F)(F)F)n2)c(F)cc1C)C(=O)OC [Compound E-42, methyl (Z)-2-[4-fluoro-2-methyl-5-[3-(trifluoromethyl)pyrazol-1-yl]phenoxy]-3-methoxy-prop-2-enoate]	≥ 80%	≥ 80%	≥ 80%	≥ 80%	≥ 80%	≥ 80%	–	≥ 80%	≥ 80%	≥ 80%	≥ 80%	24%	104 to 108 °C	≥ 80%	≥ 80%	–	pest or weed control at 200 ppm [10]: ≥ 80%
CO/C=C(\Oc1cc(-n2ccc(C(F)(F)F)n2)cc(C)c1C)C(=O)OC [Compound E-19, methyl (Z)-2-[2,3-dimethyl-5-[3-(trifluoromethyl)pyrazol-1-yl]phenoxy]-3-methoxy-prop-2-enoate]	–	≥ 80%	≥ 80%	≥ 80%	≥ 80%	≥ 80%	≥ 80%	≥ 80%	≥ 80%	–	≥ 80%	–	144 to 146 °C	–	≥ 80%	≥ 80%	–
CO/C=C(\Oc1cc(-n2cc(Br)c(C)n2)ccc1C)C(=O)OC [Compound E-117, methyl (Z)-2-[5-(4-bromo-3-methyl-pyrazol-1-yl)-2-methyl-phenoxy]-3-methoxy-prop-2-enoate]	–	≥ 80%	≥ 80%	–	≥ 80%	≥ 80%	–	≥ 80%	–	–	≥ 80%	–	120 to 122 °C	≥ 80%	≥ 80%	≥ 80%	–
CCCc1ccn(-c2ccc(C)c(O/C(=C\OC)C(=O)OC)c2)n1 [Compound E-40, methyl (Z)-3-methoxy-2-[2-methyl-5-(3-propylpyrazol-1-yl)phenoxy]prop-2-enoate]	≥ 80%	≥ 80%	≥ 80%	≥ 80%	≥ 80%	≥ 80%	≥ 80%	≥ 80%	≥ 80%	≥ 80%	≥ 80%	65%	91 to 94 °C	–	–	–	pest or weed control at 0.6 ppm ([17]; 0.6 ppm): 10%; pest or weed control at 2 ppm ([17]; 2 ppm): 35%; pest or weed control at 6 ppm ([17]; 6 ppm): 90%; pest or weed control at 20 ppm ([17]; 20 ppm): 95%; pest or weed control at 60 ppm ([17]; 60 ppm): 100%; pest or weed control at 200 ppm ([17]; 200 ppm, read-out: control (%)): 100%
CCCCc1cnn(-c2ccc(C)c(O/C(=C\OC)C(=O)OC)c2)n1 [Compound F-3, methyl (Z)-2-[5-(4-butyltriazol-2-yl)-2-methyl-phenoxy]-3-methoxy-prop-2-enoate]	–	≥ 80%	–	≥ 80%	≥ 80%	≥ 80%	–	≥ 80%	≥ 80%	–	≥ 80%	–	68 to 70 °C	≥ 80%	≥ 80%	≥ 80%	–
CO/C=C(\Oc1cc(-n2ccc(C3CCC3)n2)c(F)cc1C)C(=O)OC [Compound E-18, methyl (Z)-2-[5-(3-cyclobutylpyrazol-1-yl)-4-fluoro-2-methyl-phenoxy]-3-methoxy-prop-2-enoate]	–	≥ 80%	≥ 80%	–	≥ 80%	≥ 80%	≥ 80%	≥ 80%	≥ 80%	–	≥ 80%	–	–	≥ 80%	≥ 80%	≥ 80%	–
